According to patent US9926581B2, “Fagopyritol synthase genes and uses thereof” (Cornell Research Foundation, Inc., priority 2002, dated 2018):
“Also recorded” adds a separate entry of the source.

What was measured:
Conditions in all cases: for activity as galactosyl acceptor: UDP-Gal as galactosyl donor, 20 mM substrates, 5 mM MnCl2, 30° C.
FeGolS-2 = FeGolS-2 (Fagopyrum esculentum, UniProt Q7XZ07); experiment: Fagopyritol synthase / galactinol synthase enzyme assay with recombinant FeGolS-2 (products by gas chromatography); type: biochemical
FeGolS-2, sequence (Q7XZ07 entry or part of it): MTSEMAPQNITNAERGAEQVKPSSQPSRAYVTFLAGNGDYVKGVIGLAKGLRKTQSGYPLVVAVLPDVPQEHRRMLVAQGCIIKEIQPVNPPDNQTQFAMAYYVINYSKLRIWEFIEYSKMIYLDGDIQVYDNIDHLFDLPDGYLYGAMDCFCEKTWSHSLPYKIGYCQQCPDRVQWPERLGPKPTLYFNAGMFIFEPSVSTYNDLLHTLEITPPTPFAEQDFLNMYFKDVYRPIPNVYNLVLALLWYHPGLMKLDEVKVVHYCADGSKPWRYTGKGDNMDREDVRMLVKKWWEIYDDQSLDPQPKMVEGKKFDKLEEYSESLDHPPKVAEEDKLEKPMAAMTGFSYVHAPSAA
Experimental: (§1) Both the crude soluble protein extracts from E. coli and the purified GolS recombinant proteins were used in enzyme assays. […] In galactinol synthase assays, UDP-Gal was substituted with 20 mM galactinol as the galactosyl donor. Assays were run at 30° C. for 30 to 300 minutes. Reactions were stopped by addition of 50 μL of 100% ethanol.
(§2) The reactions were stopped after 3 hours with the addition of 50 μL of 100% EtOH.
(§3) To determine the concentration of Mn^2+ in which the enzymes had the greatest activity, multiple assays were completed varying the amount of Mn^2+. […] After 3 hours, the reactions were stopped with the addition of 50 μL of 100% EtOH.
(§4) The reactions were completed using 1-2 μg of enzyme in a 50 μL solution containing 20 mM galactosyl acceptor, 20 mM UDP-galactose, 50 mM HEPES, pH 7.0, 2 mM DTT, 5 mM Mn^2+ at 30° C. After 3 hours, the reactions were stopped with the addition of 50 of 100% EtOH.
(§5) All samples from the assays were analyzed by gas chromatography. All were prepared for analysis in the same way. […] The solution was then filtered using NanoSep tubes and 100 μL was transferred to a silation vial. The samples were then dried under nitrogen and desiccated over P2O5 overnight. The dried samples were then derivitized with 100 μL of TMSI:pyridine (1:1, v/v) and then analyzed by gas chromatography.

FeGolS-1 = experiment: Fagopyritol synthase / galactinol synthase enzyme assay with recombinant FeGolS-1 (products by gas chromatography); type: biochemical, Fagopyrum esculentum
Experimental: Both the crude soluble protein extracts from E. coli and the purified GolS recombinant proteins were used in enzyme assays. […] In galactinol synthase assays, UDP-Gal was substituted with 20 mM galactinol as the galactosyl donor. Assays were run at 30° C. for 30 to 300 minutes. Reactions were stopped by addition of 50 μL of 100% ethanol. […] The reactions were stopped after 3 hours with the addition of 50 μL of 100% EtOH. […] To determine the concentration of Mn^2+ in which the enzymes had the greatest activity, multiple assays were completed varying the amount of Mn^2+. […] After 3 hours, the reactions were stopped with the addition of 50 μL of 100% EtOH. […] After 3 hours, the reactions were stopped with the addition of 50 of 100% EtOH. All samples from the assays were analyzed by gas chromatography. All were prepared for analysis in the same way. […] The solution was then filtered using NanoSep tubes and 100 μL was transferred to a silation vial. The samples were then dried under nitrogen and desiccated over P2O5 overnight. The dried samples were then derivitized with 100 μL of TMSI:pyridine (1:1, v/v) and then analyzed by gas chromatography.

GmGolS = experiment: Galactinol synthase / fagopyritol synthase enzyme assay with recombinant GmGolS; type: biochemical, Glycine max
Experimental: as §1
Both crude soluble protein extracts from E. coli containing the recombinant GmGolS protein and purified recombinant GmGolS protein were used in enzyme assays. […] Assays were run at 30° C. for 30 to 300 minutes. Reactions were stopped by addition of 50 μL of 100% ethanol.
as §2, §3, §4, §5

[1] = 20 mM galactosyl donor instead of UDP-Gal

Row | Structure (SMILES) | activity as galactosyl acceptor (FeGolS-1) | activity as galactosyl acceptor (GmGolS) | other results
1 | COC1[C@H](O)[C@H](O)C(O)[C@H](O)[C@H]1O (stereo partly drawn) [D-bornesitol, 1D-1-O-methyl-myo-inositol] | can be used as galactosyl acceptors | reduced activity | activity as galactosyl acceptor (FeGolS-2): can be used as galactosyl acceptors; activity as galactosyl acceptor (GmGolS; listed as bornesitol): can be used as galactosyl acceptors
2 | OC1C(O)C(O)C(O)C(O)C1O [D-chiro-Inositol, D-chiro-inositol] | can be used as galactosyl acceptors |  | activity as galactosyl acceptor (FeGolS-1; listed as D-chiro-inositol): catalyzed the biosynthesis of fagopyritol B1; activity as galactosyl acceptor (GmGolS; listed as D-chiro-inositol): catalyzed the biosynthesis of fagopyritol B1, but not fagopyritol A1; also recorded: catalyzed the biosynthesis of fagopyritol B1; also recorded: can be used as galactosyl acceptors
3 | OC1C(O)C(O)C(O)C(O)C1O (stereo not drawn) [epi-inositol] |  | no activity | 
4 | O[C@H]1[C@H](O)[C@@H](O)[C@H](O)[C@@H](O)[C@@H]1O [scyllo-inositol] | can be used as galactosyl acceptors | reduced activity; also recorded: can be used as galactosyl acceptors | activity as galactosyl acceptor (FeGolS-2): can be used as galactosyl acceptors
5 | CO[C@H]1[C@H](O)[C@@H](O)[C@H](O)[C@H](O)[C@H]1O [L-quebrachitol, 1L-2-O-methyl-chiro-inositol] |  | not active | 
6 | COC1[C@@H](O)[C@H](O)C(O)[C@H](O)[C@H]1O (some centres unmarked) [sequoyitol, 5-O-methyl-myo-inositol] |  | not active | 
7 | OC[C@H]1O[C@H](OC2[C@@H](O)[C@H](O)C(O)[C@H](O)[C@@H]2O)[C@H](O)[C@@H](O)[C@H]1O (some centres unmarked) [Galactinol, galactinol] |  |  | activity as galactosyl donor (FeGolS-2; [1]): Neither FeGolS-1 nor FeGolS-2 was active; activity as galactosyl donor (FeGolS-1; [1]): Neither FeGolS-1 nor FeGolS-2 was active; activity as galactosyl donor (GmGolS; galactosyl donor instead of UDP-Gal): not active
8 | CO[C@H]1[C@H](O)[C@@H](O)[C@@H](O)[C@H](O)[C@@H]1O [D-Pinitol, 1D-3-O-methyl-chiro-inositol] |  | not active | 
9 | COC1[C@@H](O)[C@@H](O)C(O)[C@H](O)[C@H]1O (stereo partly drawn) [D-ononitol, 1D-4-O-methyl-myo-inositol] |  | not active | 
10 | OC1C(O)C(O)C(O)C(O)C1O [L-chiro-inositol] | can be used as galactosyl acceptors | active; also recorded: can be used as galactosyl acceptors | 
11 | O[C@H]1[C@H](O)[C@@H](O)[C@H](O)[C@@H](O)[C@H]1O [myo-Inositol, myo-inositol] | catalyzed the biosynthesis of galactinol; also recorded: can be used as galactosyl acceptors | catalyzed the biosynthesis of galactinol; also recorded: can be used as galactosyl acceptors | activity as galactosyl acceptor (FeGolS-2): catalyzed the biosynthesis of galactinol; also recorded: can be used as galactosyl acceptors
